Assays:
glial and neuronal cells = assay: MTT assay, viability of brain cells in primary cultures; assay type: cell-based, rat; settings: 0, 10, 20 and 50 μM for 24 hours; up to 50 μM; microglia, astrocytes, cerebellar granular neurons (FIGS. 4a-4c)
Experimental: Mixed glial cell cultures were prepared from cerebral cortex of newborn Wistar rats (Rattus norvegicus), as previously described [Monti, B.; D'Alessandro, C.; Farini, V.; Bolognesi, A.; Polazzi, E.; Contestabile, A.; Stirpe, F.; Battelli, M. G. In vitro and in vivo toxicity of type 2 ribosome-inactivating proteins lanceolin and stenodactylin on glial and neuronal cells. Neurotoxicology 2007, 28, 637-644]. Briefly, brain tissue was cleaned from meninges, trypsinized for 15 minutes at 37° C. and, after mechanical dissociation, the cell suspension was washed and plated on poly-L-lysine (Sigma-Aldrich, St. Louis, Mo., USA, 10 μg/mL) coated flasks (75 cm^2). Mixed glial cells were cultured for 10-13 days in Basal Medium Eagle (BME, Life technologies Ltd, Paisley, UK) supplemented with 100 mL/L heat-inactivated FBS (Life technologies), 2 mmol/L glutamine (Sigma-Aldrich) and 100 μmol/L gentamicin sulfate (Sigma-Aldrich). […]
Neurotoxicology 2007, 28, 637-44]. […] Following a 20 minutes incubation for CGNs and 2 hours for glial cells at 37° C. in the dark, the MTT precipitate was dissolved in 0.1 M Tris-HCl buffer containing 5% Triton X-100 (all from Sigma-Aldrich) and absorbance was read at 570 nm in a multiplate spectophotometric reader (Bio-Rad).

[1] = system: inducible nitric oxide synthase (iNOS); assay: Western blot analysis of iNOS (M1 marker) in LPS-stimulated glial cells; assay type: cell-based; settings: LPS 100 ng/mL, 24 hours co-treatment, 0, 5, 10 and 20 μM; dose-dependent; primary rat glial cells (FIGS. 5a, b)
Experimental: Mixed glial cell cultures were prepared from cerebral cortex of newborn Wistar rats (Rattus norvegicus), as previously described [Monti, B.; D'Alessandro, C.; Farini, V.; Bolognesi, A.; Polazzi, E.; Contestabile, A.; Stirpe, F.; Battelli, M. G. In vitro and in vivo toxicity of type 2 ribosome-inactivating proteins lanceolin and stenodactylin on glial and neuronal cells. Neurotoxicology 2007, 28, 637-644]. Briefly, brain tissue was cleaned from meninges, trypsinized for 15 minutes at 37° C. and, after mechanical dissociation, the cell suspension was washed and plated on poly-L-lysine (Sigma-Aldrich, St. Louis, Mo., USA, 10 μg/mL) coated flasks (75 cm^2). Mixed glial cells were cultured for 10-13 days in Basal Medium Eagle (BME, Life technologies Ltd, Paisley, UK) supplemented with 100 mL/L heat-inactivated FBS (Life technologies), 2 mmol/L glutamine (Sigma-Aldrich) and 100 μmol/L gentamicin sulfate (Sigma-Aldrich).
Microglial cells were harvested from mixed glial cell cultures by mechanical shaking, resuspended in fresh medium without serum and plated on uncoated 35 mm Ø dishes at a density of 1.5×10^6 cells/1.5 mL medium/well for western blot analysis or on 96 wells at 1×10^5 cells/0.2 mL medium/well for MTT assay. Cells were allowed to adhere for 30 minutes and then washed to remove non-adhering cells. […]

Row | SMILES | toxicity in glial and neuronal cells (MTT viability) (glial and neuronal cells) | LPS-induced iNOS induction [1]
1 | CCNC1=NC(c2ccc(F)cc2)NC(=O)N1 (racemic) [Example 3, 6-(ethylamino)-4-(4-fluorophenyl)-3,4-dihydro-1,3,5-triazin-2(1H)-one] | did not display any toxicity | reduced
2 | CCCNC1=NC(c2ccc(F)cc2)NC(=O)N1 (stereo not shown) [Example 6, 4-(4-fluorophenyl)-6-(propylamino)-3,4-dihydro-1,3,5-triazin-2(1H)-one] | did not display any toxicity | reduced

From US9975861B2, “Dual inhibitor compounds for use in the treatment of neurodegenerative disorders and alzheimer's disease” (FONDAZIONE ISTITUTO ITALIANO DI TECNOLOGIA, priority 2014, dated 2018)
